# Key:
# Assay type in all cases: cell-based, human
# HNSCC tumor tissue = experiment: H&E staining and IHC for Ki67 and Caspase 3 in tumor microenvironment platform; settings: patient 2941
# Method: The effects of Pembrolizumab and Nivolumab on proliferation in the tumor microenvironment platform were then evaluated. Tumor sections from the same patient cultured for 72 hours in the tumor microenvironment platform (performed in at least biological triplicate) were treated with Pembrolizumab, Nivolumab, or IgG as control. Tissue was subsequently formalin fixed and paraffin embedded, and processed for H&E staining and immuno histochemical staining (IHC) with Ki67 and Caspase 3 at day 3 in culture (T3). Baseline staining was determined at TO.
# The effect of Pembrolizumab and Nivolumab on CD8^+ T cell tumor infiltration was then evaluated. Tumor sections from the same patient cultured for 72 hours in the tumor microenvironment platform were treated with Pembrolizumab, Nivolumab, or IgG as control and stained for H&E, Ki67, Caspase 3, and CD8 at day 3 in culture (T3). Baseline staining was determined at TO. […] CD8^+ T cell infiltration was evaluated in the tumor microenvironment platform with tumor tissue from the same patient, and comparisons for control vs Nivo, control vs Pembro, Nivo vs Pembro, and control vs Nivo vs Pembro for multiple patients are shown in FIG. 6 (each line represents results from the tumor microenvironment platform cultured with tumor tissue from a single individual).
# Tumor sections = experiment: FACS of CD3+/CD45+ lymphocytes for PD-1, CEACAM, LAG3, TIM3, OX40, ILDR2, 4-1-BB, GITR, tumor sections
# Method: To further probe the phenotypic modulation mediated by treatment with Nivolumab, tumor sections or PBNCs from the same patient cultured for 3 days (72 hours) in the tumor microenvironment platform were treated with Nivolumab or IgG control for one day, followed by flow cytometry gating for lymphocytes based on their forward and side scatter properties. Lymphocytes were further gated for expression of both CD3 and CD45, and this population of cells was analyzed by FACS for expression of PD-1, CEACAM, LAG3, TIM3, OX40, ILDR2, 4-1-BB, and GITR.
# CRC tumor tissue = experiment: Granzyme B and Perforin secretion assays, CRC tumor sections in tumor microenvironment platform; settings: 48 hours
# Method: FIGS. 10A and 10B show quantification of results for Granzyme B and Perforin secretion assays for CRC tumor tissue cultured in the tumor microenvironment platform treated with Ipilimumab, Nivolumab, Ipilimumab+Nivolumab, FOLFIRI, or IgG control for 24 or 48 hours.
# In another experiment, CRC tumor sections from the same patient cultured for 24 or 48 hours in the tumor microenvironment platform with Ipilimumab, Nivolumab, Ipilimumab+Nivolumab, FOLFIRI, or IgG as control were assayed for Granzyme B and Perforin secretion. Results are shown in FIG. 10A for the tumor microenvironment platform with tumor tissue from a predicted responder and FIG. 10B for the tumor microenvironment platform with tumor tissue from a predicted non-responder. After treatment with Nivolumab for 48 hours, there was an increase in Granzyme B secretion in the tumor microenvironment platform with tissue from the predicted responder compared to treatment with Ipilimumab or the control IgG. By contrast, at 48 hours in the tumor microenvironment platform with tissue from the predicted non-responder there was no increase in Granzyme B or Perforin secretion for treatment with Nivolumab.
# [1] = platform containing tumor tissue, vs IgG control
substance,measurement,setting,value
Nivolumab,proliferation (Ki67 IHC),"HNSCC tumor tissue; 72 hours, vs IgG control",diminished proliferation
same,Caspase 3 activity (IHC),"HNSCC tumor tissue; T3, associated with increased CD8^+ T cell infiltration",increased Caspase 3 activity
same,OX40 Tumor (% total cells),"Tumor sections; CD3+/CD45+ lymphocytes, treated one day, control 1.70",0 % total cells
same,CEACAM Tumor (% total cells),"Tumor sections; CD3+/CD45+ lymphocytes, treated one day, control 2.04",3.69 % total cells
same,LAG3 Tumor (% total cells),"Tumor sections; CD3+/CD45+ lymphocytes, treated one day, control 2.22",0.52 % total cells
same,GITR Tumor (% total cells),"Tumor sections; CD3+/CD45+ lymphocytes, treated one day, control 2.60",13.0 % total cells
same,4-1-BB Tumor (% total cells),"Tumor sections; CD3+/CD45+ lymphocytes, treated one day, control 4.69",7.56 % total cells
same,TIM3 Tumor (% total cells),"Tumor sections; CD3+/CD45+ lymphocytes, treated one day, control 17.8",19.9 % total cells
same,PD-1 Tumor (% total cells),"Tumor sections; CD3+/CD45+ lymphocytes, treated one day, control 19.4",20.5 % total cells
same,ILDR2 Tumor (% total cells),"Tumor sections; CD3+/CD45+ lymphocytes, treated one day, control 24.4",17.1 % total cells
same,number of GITR^+/CD3^+/CD45^+ lymphocytes,Tumor sections; [1],increase
same,number of ILDR2^+/CD3^+/CD45^+ lymphocytes,Tumor sections; [1],decrease
same,Granzyme B secretion,CRC tumor tissue; predicted non-responder,no increase
same,Perforin secretion,CRC tumor tissue; predicted non-responder,no increase
same,Granzyme B secretion,"CRC tumor tissue; predicted responder, compared to Ipilimumab or control IgG",increase

# From patent US20200333324A1, “METHOD OF PREDICTING CLINICAL OUTCOME OF ANTICANCER AGENTS” (MITRA RXDX, INC., priority 2017, published 2020)
